Assay results as given in patent US12435039B2, “Activators of caspase-8/c-FLIPL dimerization and their use in cancer therapy” (priority 2018, dated 2025).

How the values were obtained:
[1] = system: procaspase-8, RIPK1 and PARP cleavage in HeLa-CD95 cells; assay: Western Blot analysis of total cellular lysates, CD95L-induced cleavage; format: cell-based, human; settings: 20 μM FLIPinBγ two hours, CD95L 60 ng/mL three hours
Description: (§1) Analysis of total cell lysates by Western Blot analysis—The Western Blot analysis of total cellular lysates was performed in accordance to the inventors' previous reports (Schmidt et al., 2015).

[2] = system: caspase-3/7 in HeLa-CD95 cells; assay: Caspase-3/7 activity by IncuCyte live cell imaging (Caspase-3/7 Green); format: cell-based, human
MV-4-11 cells = assay: Cell viability quantification by ATP assay (CellTiter-Glo), MV-4-11 cells; format: cell-based, human; settings: FLIPinBγ two hours, then CD95L 1000 ng/mL for 6 hours
From the text: (§2) Cell lines—Human cervical cancer HeLa-CD95 cells (Neumann et al., 2010) (CD95-overexpressing cells) and HeLa-CD95-FL cells (CD95/c-FLIPL-overexpressing cells) were maintained in DMEM/Ham's (Merck Millipore, Germany) supplemented with 10% heat-inactivated fetal calf serum, 1% Penicillin-Streptomycin and 0.0001% Puromycin in 5% CO2. Human acute myeloid leukemia MV-4-11 cells and T lymphoma Jurkat cells were maintained in RPMI 1640 (Thermo Fisher Scientific Inc., USA) supplemented with 10% heat-inactivated fetal calf serum and 1% Penicillin-Streptomycin in 5% CO2.
(§3) Cell viability quantification by ATP assay—50 μL of the CellTiter-Glo® solution was added to each well and measurements were performed according to manufacturer's instructions (CellTiter-Glo® Luminescent Cell Viability Assay, Promega, Germany). The luminescence intensity was analyzed by a microplate reader Infinite M200pro (Tecan, Switzerland). The viability of untreated cells was taken as one relative unit (RU). Every condition was performed in duplicate.

Jurkat cells = assay: Cell viability quantification by ATP assay (CellTiter-Glo), Jurkat cells; format: cell-based, human
From the text: as §2, §3

[3] = system: HeLa-CD95-FL cells (CD95/c-FLIPL-overexpressing); assay: Cell viability quantification by ATP assay (CellTiter-Glo), HeLa-CD95-FL cells; format: cell-based, human
From the text: as §2, §3

caspase-8 at the DISC = assay: Caspase-8 activity assay on CD95 DISC-IPs (Caspase-Glo 8); format: biochemical, human; settings: CD95 DISC-IPs from HeLa-CD95 cells; 20 μM FLIPinBγ two hours, CD95L 60 ng/mL three hours
Description: CD95 DISC-IP—The CD95 DISC-IP (Immunoprecipitation) from 5×10^6 HeLa-CD95 cells were done as described before (Pietkiewicz et al., 2015). In addition, DISC-IPs were washed four times with PBS, which was followed by Western Blot analysis or caspase-8 activity assays.
Caspase-8 activity assay—Each of protein A beads samples with CD95 DISC-IPs were resuspended in 95 μL of CHAPS-Buffer (50 mM HEPES pH=7.2; 50 mM NaCl; 10 mM EDTA; 5% Glycerin; 10 mM DTT, 0.1% CHAPS) and transferred into a 96-well plate. Caspase-8 activity was measured according to manufacturer's instructions (Caspase-Glo® 8 Assay, Promega, Germany). Every condition was performed in duplicate. The luminescence intensity was analyzed by a microplate reader Infinite M200pro (Tecan, Switzerland).

[4] = system: caspase-3/7 in Jurkat cells; assay: Caspase-3/7 activity assay (Caspase-Glo 3/7), Jurkat cells; format: cell-based, human
Description: Caspase-3/7 activity assay—Caspase activity was measured by adding 50 μL of the Caspase-Glo®3/7 solution to each well. The luminescence intensity was analyzed by a microplate reader Infinite M200pro (Tecan, Switzerland) according to manufacturer's instructions (Caspase-Glo® 3/7 Assay, Promega, Germany). The caspase activity of non-treated cells was taken as one relative unit (RU). Every condition was performed in duplicate.

HeLa-CD95 cells [5] = assay: Cell death detection using IncuCyte live cell imaging (Cytotox Red); format: cell-based; settings: 40 μM FLIPinBγ two hours
Description: Cell death detection using IncuCyte™ live cell imaging—HeLa-CD95 cells in a 96 well plate (5×10^3 cells/well) were pre-incubated with FLIPinBγ for 2 hours. […] To monitor cell death, cells were treated with IncuCyte™ Cytotox Red Reagent (1:4000) and Caspase-3/7 Green Apoptosis Assay Reagent (1:5000). The cells were imaged every hour by IncuCyte® ZOOM (Essen BioScience, Michigan) with a […] objective for a period of 6 hours. Every condition was performed in triplicate. Data were analyzed by the IncuCyte® ZOOM Software (2016A).

HeLa-CD95 cells [6] = assay: Cell viability quantification by ATP assay (CellTiter-Glo), HeLa-CD95 cells; format: cell-based, human
From the text: as §2, §3

c-FLIPL = assay: Western Blot time-dependent analysis of c-FLIPL levels; format: cell-based, human; settings: HeLa-CD95 cells; 20 μM FLIPinBγ up to 16 hours; first hours after administration
Description: as §1

[7] = system: caspase activity in HeLa-CD95 cells; assay: Caspase activity in HeLa-CD95 cells (FLIPinB); format: cell-based, human; settings: FLIPinB with CD95L/TRAIL

O=C(NCCOC(=O)c1cccc(S(=O)(=O)NCc2cccnc2)c1)c1ccc(-c2ccncc2)cc1 [FLIPinBγ, 2-[[4-(4-pyridyl)benzoyl]amino]ethyl 3-(3-pyridylmethylsulfamoyl)benzoate]
CD95L-induced RIPK1 cleavage [1]: slight increase
CD95L-induced cleavage of PARP [1]: increases
CD95L-induced cleavage of procaspase-8 to p18 [1]: increases
caspase-3/7 activity in single cells, FLIPinBγ/TRAIL co-administration [2]: increase
caspase-3/7 activity in single cells, FLIPinBγ/CD95L co-administration ([2]; 40 μM FLIPinBγ two hours, CD95L 50 ng/mL): increase
CD95L-induced loss of cell viability (MV-4-11 cells): efficiently promoted a loss of cell viability in a dose- and time-dependent manner
CD95L-induced loss of cell viability (Jurkat cells; FLIPinBγ two hours, then CD95L 60 ng/mL for 6 hours): efficiently promoted a loss of cell viability in a dose- and time-dependent manner
relative efficiency across cell lines ([3]; HeLa-CD95-FL cells overexpressing c-FLIPL): most efficient
CD95L-induced loss of cell viability ([3]; HeLa-CD95-FL cells, FLIPinBγ two hours, then CD95L 238 ng/mL for 6 hours): efficiently promoted a loss of cell viability in a dose- and time-dependent manner
caspase-8 activity at the DISC (caspase-8 at the DISC): increased
caspase-3/7 activity, FLIPinBγ/CD95L co-treatment ([4]; 20 μM FLIPinBγ two hours, CD95L 60 ng/mL four hours): increase
caspase-3/7 activity, FLIPinBγ/TRAIL co-treatment ([4]; 20 μM FLIPinBγ two hours, TRAIL 100 ng/mL three hours): increase
CD95L-induced cell death (Cytotox Red live cell imaging) (HeLa-CD95 cells [5]; CD95L 50 ng/mL, in the first hours): enhanced
TRAIL-induced cell death (Cytotox Red live cell imaging) (HeLa-CD95 cells [5]; TRAIL 100 ng/mL, most prominent in the first hours): enhanced
CD95L-induced loss of cell viability (HeLa-CD95 cells [6]; FLIPinBγ two hours, then CD95L 60 ng/mL for 22 hours): efficiently promoted a loss of cell viability in a dose- and time-dependent manner
influence on c-FLIPL expression (c-FLIPL): no influence

O=C(NCCOC(=O)c1cccc(S(=O)(=O)NCc2ccccc2)c1)c1ccc(-c2ccccc2)cc1 [FLIPinB, 2-[(4-phenylbenozyl)amino]ethyl 3-(benzylsulfamoyl)benzoate]
caspase activity [7]: increased
initial experimental screening of FLIPins: viability upon FLIPin/CD95L vs CD95L-only (Jurkat cells): showed the best properties in the initial selection
CD95L-induced loss of cell viability (Jurkat cells; FLIPinB plus CD95L vs CD95L only): enhanced
TRAIL-induced loss of cell viability (Jurkat cells; FLIPinB plus TRAIL): enhanced
resistance of HeLa-CD95-FL cells to CD95L ([3]; HeLa-CD95-FL cells, FLIPinB plus CD95L): allowed to overcome the resistance
caspase activity ([4]; FLIPinB with CD95L/TRAIL): increased
CD95L-induced loss of cell viability (HeLa-CD95 cells [6]; FLIPinB plus CD95L): enhanced
TRAIL-induced loss of cell viability (HeLa-CD95 cells [6]; FLIPinB plus TRAIL): enhanced
